# Source: ChEMBL document CHEMBL5104157, “Design, synthesis and biological evaluation of light-driven on-off multitarget AChE and MAO-B inhibitors” (RSC Med Chem, 2022)
# Assays:
# Acetylcholinesterase = Acetylcholinesterase (Homo sapiens, UniProt P22303); experiment: Inhibition of human serum recombinant AChE using acetylthiocholine iodide as a substrate incubated for 20 mins by DTNB reagent based Ellman's method; assay type: cell-free
# [1] = target: Cholinesterase (Homo sapiens) (UniProt P06276); experiment: Inhibition of human serum recombinant BChE using butyrylthiocholine iodide as a substrate at 10 uM incubated for 20 mins by DTNB reagent based Ellman's method; assay type: cell-free
# [2] = target: Amyloid-beta precursor protein (Homo sapiens) (UniProt P05067); experiment: Inhibition of amyloid beta (1 to 40) (unknown origin) self aggregation at 10 uM incubated for 2 hrs by ThT fluorescence assay
# [3] = target: T1, MAO-A (amine oxidase [flavin-containing] A) (Homo sapiens, UniProt P21397); experiment: Inhibition of human recombinant MAO-A assessed as reduction in 4-hydroxyquinoline level using kynuramine as a substrate at 10 uM preincubated for 5 mins followed by substrate addition by spectrofluorimetric analysis; settings: probe kynuramine
# T1 sequence (P21397 whole entry): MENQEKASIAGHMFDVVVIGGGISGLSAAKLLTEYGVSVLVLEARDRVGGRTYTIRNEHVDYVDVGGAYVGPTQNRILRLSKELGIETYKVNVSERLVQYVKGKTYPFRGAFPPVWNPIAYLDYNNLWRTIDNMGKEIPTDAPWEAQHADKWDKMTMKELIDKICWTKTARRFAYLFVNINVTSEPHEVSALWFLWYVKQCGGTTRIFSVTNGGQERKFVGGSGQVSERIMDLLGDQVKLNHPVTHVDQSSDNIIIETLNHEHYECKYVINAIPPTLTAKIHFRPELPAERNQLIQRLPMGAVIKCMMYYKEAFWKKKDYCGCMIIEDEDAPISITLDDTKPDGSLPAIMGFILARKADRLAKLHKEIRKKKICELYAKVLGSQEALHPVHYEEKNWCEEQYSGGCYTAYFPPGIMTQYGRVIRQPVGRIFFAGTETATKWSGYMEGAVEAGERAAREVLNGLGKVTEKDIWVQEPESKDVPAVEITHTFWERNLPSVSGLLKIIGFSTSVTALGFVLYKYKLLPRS
# [4] = target: T2, Amine oxidase [flavin-containing] B (Homo sapiens, UniProt P27338); experiment: Inhibition of human recombinant MAO-B assessed as reduction in 4-hydroxyquinoline level using kynuramine as a substrate preincubated for 5 mins followed by substrate addition by spectrofluorimetric analysis
# T2 sequence (P27338 whole entry): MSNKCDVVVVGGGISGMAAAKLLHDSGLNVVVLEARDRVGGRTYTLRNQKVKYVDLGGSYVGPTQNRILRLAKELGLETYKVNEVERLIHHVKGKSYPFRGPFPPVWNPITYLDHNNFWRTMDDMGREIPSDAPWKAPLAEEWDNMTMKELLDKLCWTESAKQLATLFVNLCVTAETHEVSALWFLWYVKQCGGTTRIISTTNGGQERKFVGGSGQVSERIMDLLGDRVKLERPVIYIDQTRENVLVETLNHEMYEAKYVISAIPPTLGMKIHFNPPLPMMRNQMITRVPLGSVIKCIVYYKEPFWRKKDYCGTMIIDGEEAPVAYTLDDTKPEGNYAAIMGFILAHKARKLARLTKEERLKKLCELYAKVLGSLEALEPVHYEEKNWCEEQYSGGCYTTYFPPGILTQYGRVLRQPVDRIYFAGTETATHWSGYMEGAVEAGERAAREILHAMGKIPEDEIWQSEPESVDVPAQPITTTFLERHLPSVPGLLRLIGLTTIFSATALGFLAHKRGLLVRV
# [5] = target: T3, Amine oxidase [flavin-containing] A (Homo sapiens, UniProt P21397); experiment: Inhibition of human recombinant MAO-A assessed as reduction in 4-hydroxyquinoline level using kynuramine as a substrate preincubated for 5 mins followed by substrate addition by spectrofluorimetric analysis
# T3 sequence (P21397 whole entry): T1 sequence (P21397 whole entry)
# Chain of Amyloid-beta precursor protein (Homo sapiens) (P05067 whole entry): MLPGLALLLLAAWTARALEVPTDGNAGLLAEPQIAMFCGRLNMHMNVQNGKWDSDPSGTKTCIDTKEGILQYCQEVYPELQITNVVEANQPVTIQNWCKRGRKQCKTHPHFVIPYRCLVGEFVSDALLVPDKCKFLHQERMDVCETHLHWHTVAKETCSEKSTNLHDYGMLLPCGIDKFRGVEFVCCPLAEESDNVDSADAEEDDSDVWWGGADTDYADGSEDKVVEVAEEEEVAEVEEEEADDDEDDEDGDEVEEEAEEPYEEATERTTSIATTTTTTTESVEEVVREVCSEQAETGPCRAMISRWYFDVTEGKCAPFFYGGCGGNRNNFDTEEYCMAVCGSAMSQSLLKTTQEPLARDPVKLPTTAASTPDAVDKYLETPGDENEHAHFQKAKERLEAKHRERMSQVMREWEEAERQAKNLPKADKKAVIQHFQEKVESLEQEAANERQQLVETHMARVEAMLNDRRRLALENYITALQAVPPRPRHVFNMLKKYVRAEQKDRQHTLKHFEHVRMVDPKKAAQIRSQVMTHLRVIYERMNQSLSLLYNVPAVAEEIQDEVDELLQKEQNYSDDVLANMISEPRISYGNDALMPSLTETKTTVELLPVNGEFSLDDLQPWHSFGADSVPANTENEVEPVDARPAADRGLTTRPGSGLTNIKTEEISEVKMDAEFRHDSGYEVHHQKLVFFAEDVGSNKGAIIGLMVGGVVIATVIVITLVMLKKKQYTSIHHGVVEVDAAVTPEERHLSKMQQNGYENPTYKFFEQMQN
# Chain of Cholinesterase (Homo sapiens) (P06276 whole entry): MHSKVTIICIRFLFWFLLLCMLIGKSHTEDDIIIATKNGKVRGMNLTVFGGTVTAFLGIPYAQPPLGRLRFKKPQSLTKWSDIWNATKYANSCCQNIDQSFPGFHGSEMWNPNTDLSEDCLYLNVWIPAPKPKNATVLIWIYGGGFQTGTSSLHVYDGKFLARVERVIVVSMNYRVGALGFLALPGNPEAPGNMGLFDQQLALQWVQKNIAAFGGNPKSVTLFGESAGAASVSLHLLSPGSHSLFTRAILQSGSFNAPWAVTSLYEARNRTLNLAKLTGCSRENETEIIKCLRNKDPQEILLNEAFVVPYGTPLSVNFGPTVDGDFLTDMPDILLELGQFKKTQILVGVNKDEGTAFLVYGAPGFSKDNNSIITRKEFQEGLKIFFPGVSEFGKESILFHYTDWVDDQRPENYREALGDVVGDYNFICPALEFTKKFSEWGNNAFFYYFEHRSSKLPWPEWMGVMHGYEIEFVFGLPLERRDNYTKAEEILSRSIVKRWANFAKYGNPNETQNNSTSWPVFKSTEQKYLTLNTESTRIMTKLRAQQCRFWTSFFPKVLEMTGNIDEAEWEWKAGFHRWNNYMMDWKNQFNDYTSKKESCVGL
# Chain of Acetylcholinesterase (P22303 whole entry): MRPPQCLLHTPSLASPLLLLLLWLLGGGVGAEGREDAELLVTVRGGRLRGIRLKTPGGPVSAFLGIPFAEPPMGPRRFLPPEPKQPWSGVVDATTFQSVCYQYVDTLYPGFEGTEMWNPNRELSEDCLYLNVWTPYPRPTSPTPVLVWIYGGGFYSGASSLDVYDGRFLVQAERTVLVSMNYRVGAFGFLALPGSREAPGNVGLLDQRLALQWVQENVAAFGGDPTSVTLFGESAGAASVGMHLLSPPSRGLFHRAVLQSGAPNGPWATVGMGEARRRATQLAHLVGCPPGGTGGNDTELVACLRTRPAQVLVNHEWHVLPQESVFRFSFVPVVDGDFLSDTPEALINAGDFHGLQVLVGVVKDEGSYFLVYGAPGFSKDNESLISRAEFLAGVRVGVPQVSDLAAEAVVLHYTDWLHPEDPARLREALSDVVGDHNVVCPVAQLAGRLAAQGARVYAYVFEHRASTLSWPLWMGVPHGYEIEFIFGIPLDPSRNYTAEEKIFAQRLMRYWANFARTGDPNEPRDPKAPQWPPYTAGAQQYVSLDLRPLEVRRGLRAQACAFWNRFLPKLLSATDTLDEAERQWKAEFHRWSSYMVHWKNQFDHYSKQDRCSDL
SMILES,IC50 (Acetylcholinesterase),inhibition [1],inhibition [2],inhibition at 10 µM [3],IC50 [4],IC50 [5]
CCN(CC)Cc1ccc(C=C2Cc3ccc(OC)cc3C2=O)cc1,1100 nM,8.3%,37.7%,–,–,–
CCN(CC)Cc1ccc(/C=C2\Cc3cc(OC)c(OC)cc3C2=O)cc1,63 nM,–,–,49.6%,783 nM,–
CCN(CC)Cc1ccc(/C=C2\Cc3ccc(OC)cc3C2=O)cc1,964 nM,14.3%,–,–,91 nM,95 nM
CCN(CC)Cc1ccc(C=C2Cc3cc(OC)ccc3C2=O)cc1,505 nM,–,–,45.1%,–,–
CCN(CC)Cc1ccc(C=C2Cc3cc(OC)c(OC)cc3C2=O)cc1,253 nM,–,56%,–,–,–
O=c1c(O)c(-c2ccc(O)c(O)c2)oc2cc(O)cc(O)c12,–,–,84.4%,–,–,–
CCN(CC)Cc1ccc(/C=C2\Cc3cc(OC)ccc3C2=O)cc1,113 nM,–,7.4%,32.8%,–,–
CCN(CC)Cc1ccc(/C=C2\Cc3ccccc3C2=O)cc1,612 nM,17.8%,–,42.7%,661 nM,–
CCN(CC)Cc1ccc(/C=C2/Cc3cc(OC)ccc3C2=O)cc1,1150 nM,–,23.4%,28.2%,1940 nM,–
CCN(CC)Cc1ccc(C=C2Cc3ccccc3C2=O)cc1,1310 nM,16.2%,8.1%,–,–,–
